Key:
Drosophila S2 cells [1] = experiment: Cellular triacylglycerol (TG) content of S2 cells; format: cell-based; details: S2 cells incubated with 1 mM oleate for 24 hours; means of three experiments, P<0.05
Protocol: FIG. 1A is series of micrographs of S2 cells incubated for 24 hours without (upper) or with (lower) 1 mM oleate. Staining with BODIPY, phase-contrast image, and overlay are shown. FIG. 1B is a graph showing that oleate-loaded cells have an increased triacylglycerol (TG) content. Cells were incubated as in FIG. 1a and their TG (triglyceride) contents were measured. Results are means and s.d. for three experiments; P<0.05. FIG. 1C is a series of micrographs showing that lipid droplet formation occurs in steps. Single cells were followed by four-dimensional confocal time-lapse photography. Representative maximum projections of three-dimensional stacks at the indicated times are shown. Scale bar is 3 μm.
Lipid measurements. Cells were cultured in 6-well plates (16 μg dsRNAs each well) for 3 days, and then 1 mM oleate was added for 24 hours. Cells were lysed in 50 mM Tris-HCl (pH 7.4), 0.25 M sucrose, and samples (250 μg protein) were assayed for lipids. PC was quantified with a colorimetric method^29. TG content was measured from extracted lipids by TLC^30.

Drosophila S2 cells [2] = experiment: Lipid-droplet formation in S2 cells, BODIPY staining and microscopy; format: cell-based; details: S2 cells incubated with 1 mM oleate for 24 hours
Protocol: Lipid-droplet formation in Drosophila Schneider 2 (S2) cells is an excellent system for functional genomic studies with efficient gene inactivation by RNAi^6. In the exemplified methods below, lipid-droplet formation was induced by incubation with 1 mM oleate for 24 hours. […] BODIPY-stained fluorescent signals corresponded to lipid droplets with a red fluorescent protein mCherry^7 fused with LSD1, which localizes exclusively to the surface of lipid droplets^3 (not shown).
Cell culture. Drosophila S2 cells were cultured in Schneider's Drosophila medium (Invitrogen) supplemented with 10% fetal bovine serum and antibiotics (100 unit/ml penicillin and 100 μg/ml streptomycin) at 25° C. as described^32. RNAi treatment of S2 cells were performed as previously described^10. A segment of pBluescript backbone was used as the template for control RNAi (referred as control RNAi thereafter). Transfection of S2 cells was performed using Cellfectin reagent (Invitrogen). Images of live cells were taken using LSM 510 confocal microscope (Carl Zeiss MicroImaging) with a 63× oil immersion lens.
Image analyses. S2 cells (2.7×10^6 cells/ml) were treated with 1 μg dsRNA in 96-well plates for 3 days, and 1 mM oleic acid was added for 24 h. Cells were fixed in 4% paraformaldehyde/PBS (1 h) and stained with DAPI and BODIPY493/503 in PBS (1 h). […]

In the case of `CCCCCCCC/C=C\CCCCCCCC(=O)O` [oleate, Oleic acid], the “cellular triacylglycerol (TG) content” value (Drosophila S2 cells [1]) was “increased sevenfold” and the “lipid droplet size, number, and overall volume (BODIPY staining)” value (Drosophila S2 cells [2]) was “increased”.

From patent US8435790B2, “Methods of modulating lipid concentrations in eukaryotic cells” (The Regents of the University of California, priority 2008, dated 2013)
